Measurements: PMC10213937 (Frontiers in Pharmacology, 2023)
Where two headings read alike, the source gives them in different places.

What was measured:
[1] = Plasma concentrations of ATO, metabolites and VOR in patients (HPLC-MS/MS); format: in vivo, human; design: Concentration in human blood samples: unit not given here; details: for Concentration in human blood samples: n = 3; for Decrease of metabolite concentration in the VOR group: VOR + ATO vs ATO alone
From the text: The experimental procedures were approved by the Ethics Committee of Shenzhen Hospital of Southern Medical University, and conducted in accordance with the Declaration of Helsinki (No. NYSZYYEC20180017). Subjects were selected from patients seen in the Department of Critical Care Medicine of Shenzhen Hospital of Southern Medical University, who were diagnosed with fungal infections complicated by cardiovascular and cerebrovascular diseases. Written informed consent was obtained from three patients aged 20-55 years. […] All procedures followed the ethical principles of the World Medical Association (WMA) Declaration of Helsinki and were approved by the Medical Ethics Committee of Shenzhen Hospital. […] Prelude […] The injection volume is 2 μL.

[2] = Stability in rat blood plasma (HPLC-MS/MS validation); details: n = 5
ABCC2 = ABCC2 (Homo sapiens, UniProt Q92887); experiment: ATO uptake/transport in cell transport models, ABCC2; format: cell-based; details: ATO as substrate, MK571 20 μM
[3] = Pharmacokinetic interaction study in rats, Study II: VOR with or without ATO; format: in vivo; details: male, Sprague-Dawley, rat, plasma, po, 20 mg/kg; for AUC(0-t): read-out: AUC0–24h
Experimental: Considering the clinical dosage of each drug and the dose equivalence between rats and human subjects, the corresponding quantity of drug powder was taken and resuspended with normal saline to prepare the drug-containing administration solution before treatment.
Treatment of the blood plasma: 40 µL of blood plasma was mixed with 10 µL of internal standard working solution (500 ng/ml) and acidified with 100 µL CH3COONa (0.1 mol/L). After the methyl tert-butyl (1 ml) was added, the mixture was vortexed for 5 min and centrifuged at 3000 r/min for 10 min at 4°C. The supernatant was removed into another 10 ml conical glass tube and dried in a rotary evaporator at 45°C. The residue was redissolved in 100 µL methanol and vortexed for 1 min, followed by HPLC-MS/MS analysis.
A Thermo Scientific™ TSQ Quantiva™ triple-stage quadrupole mass spectrometer (Thermo Fisher Scientific, MA, USA) equipped with a Thermo Scientific™ OptaMax™ NG ion source was used for the experiments. Prelude SPLC™ System samples, pretreatment technology (TurboFlow Eddy current purification), and a Thermo Scientific liquid chromatography system were also connected to the mass spectrometer. The HPLC conditions were as follows: column, Thermo Hypersil Gold C18 column (2.1 × 100 mm, 1.9 μm), column temperature maintained at 40 °C; TurboFlow column, Thermo Cyclone TM-P (0.5 × 50 mm) (ThermoFisher Scientific, MA, USA). The injection volume is 2 μL.
The analytes were quantified by selective reaction monitoring (SRM) that used heating electrospray ionization (H-ESI) in the positive ion mode. The main working parameters of the mass spectrometry were regulated as follows: ion spray voltage, 3 kV; capillary temperature, 350°C; sheath gas (N2) flow, 45 Arb; auxiliary gas (N2) flow, 10 Arb; and collision gas (Ar) flow, 2 mTorr. […] Thermo Scientific™ Pinpoint™ software version 1.3 (ThermoFisher Scientific, MA, USA) was used for data acquisition.
The blood samples (0.2 ml aliquots) were collected after taking a single dose of the test drug, which was the same as described in Study I. The blood samples were preserved on ice for further processing; after centrifuging at 4000 rpm for 5 min, the plasma samples were obtained and stored at −80°C until further analysis was performed. […] Non-compartmental pharmacokinetic analysis of plasma data was conducted using DAS (2.0 version, BioGuider Co., Shanghai, China) to calculate the parameters in the pharmacokinetic study.

CYP3A [4] = experiment: in vitro; details: rat, microsomes
[5] = rat
CYP3A [6] = experiment: Inhibition by VOR of ATO metabolism in rat liver microsomes; format: in vitro ADME; details: pH 7.4, probe atorvastatin (ATO), 2 μM
Experimental: The incubations were performed in duplicate.

[7] = ATO 20 mg alone, 0 h after taking ATO
[8] = ATO 20 mg alone, 1 h after taking ATO
[9] = ATO 20 mg alone, 2 h after taking ATO
[10] = ATO 20 mg alone, 12 h after taking ATO
[11] = ATO 20 mg alone, 24 h after taking ATO
[12] = VOR + ATO (VOR iv 6 mg/kg day 1, 4 mg/kg days 2–3), 0 h after taking ATO
[13] = first of four printed values (1 h by Table 1)
[14] = fourth of four printed values (24 h by Table 1)
[15] = second of four printed values (2 h by Table 1)
[16] = third of four printed values (12 h by Table 1)
[17] = VOR + ATO, 1 h after taking ATO
[18] = VOR + ATO, 2 h after taking ATO
[19] = VOR + ATO, 12 h after taking ATO
[20] = VOR + ATO, 24 h after taking ATO
[21] = 24 h at 25℃, nominal 0.05 ng/mL
[22] = three freeze-thaw cycle (−80℃/25℃), nominal 0.05 ng/mL
[23] = three freeze-thaw cycle (−80℃/25℃), nominal 5 ng/mL
[24] = three freeze-thaw cycle (−80℃/25℃), nominal 80 ng/mL
[25] = ATO 2 mg/kg + VOR 20 mg/kg oral

ABCC2, sequence (Q92887 whole entry): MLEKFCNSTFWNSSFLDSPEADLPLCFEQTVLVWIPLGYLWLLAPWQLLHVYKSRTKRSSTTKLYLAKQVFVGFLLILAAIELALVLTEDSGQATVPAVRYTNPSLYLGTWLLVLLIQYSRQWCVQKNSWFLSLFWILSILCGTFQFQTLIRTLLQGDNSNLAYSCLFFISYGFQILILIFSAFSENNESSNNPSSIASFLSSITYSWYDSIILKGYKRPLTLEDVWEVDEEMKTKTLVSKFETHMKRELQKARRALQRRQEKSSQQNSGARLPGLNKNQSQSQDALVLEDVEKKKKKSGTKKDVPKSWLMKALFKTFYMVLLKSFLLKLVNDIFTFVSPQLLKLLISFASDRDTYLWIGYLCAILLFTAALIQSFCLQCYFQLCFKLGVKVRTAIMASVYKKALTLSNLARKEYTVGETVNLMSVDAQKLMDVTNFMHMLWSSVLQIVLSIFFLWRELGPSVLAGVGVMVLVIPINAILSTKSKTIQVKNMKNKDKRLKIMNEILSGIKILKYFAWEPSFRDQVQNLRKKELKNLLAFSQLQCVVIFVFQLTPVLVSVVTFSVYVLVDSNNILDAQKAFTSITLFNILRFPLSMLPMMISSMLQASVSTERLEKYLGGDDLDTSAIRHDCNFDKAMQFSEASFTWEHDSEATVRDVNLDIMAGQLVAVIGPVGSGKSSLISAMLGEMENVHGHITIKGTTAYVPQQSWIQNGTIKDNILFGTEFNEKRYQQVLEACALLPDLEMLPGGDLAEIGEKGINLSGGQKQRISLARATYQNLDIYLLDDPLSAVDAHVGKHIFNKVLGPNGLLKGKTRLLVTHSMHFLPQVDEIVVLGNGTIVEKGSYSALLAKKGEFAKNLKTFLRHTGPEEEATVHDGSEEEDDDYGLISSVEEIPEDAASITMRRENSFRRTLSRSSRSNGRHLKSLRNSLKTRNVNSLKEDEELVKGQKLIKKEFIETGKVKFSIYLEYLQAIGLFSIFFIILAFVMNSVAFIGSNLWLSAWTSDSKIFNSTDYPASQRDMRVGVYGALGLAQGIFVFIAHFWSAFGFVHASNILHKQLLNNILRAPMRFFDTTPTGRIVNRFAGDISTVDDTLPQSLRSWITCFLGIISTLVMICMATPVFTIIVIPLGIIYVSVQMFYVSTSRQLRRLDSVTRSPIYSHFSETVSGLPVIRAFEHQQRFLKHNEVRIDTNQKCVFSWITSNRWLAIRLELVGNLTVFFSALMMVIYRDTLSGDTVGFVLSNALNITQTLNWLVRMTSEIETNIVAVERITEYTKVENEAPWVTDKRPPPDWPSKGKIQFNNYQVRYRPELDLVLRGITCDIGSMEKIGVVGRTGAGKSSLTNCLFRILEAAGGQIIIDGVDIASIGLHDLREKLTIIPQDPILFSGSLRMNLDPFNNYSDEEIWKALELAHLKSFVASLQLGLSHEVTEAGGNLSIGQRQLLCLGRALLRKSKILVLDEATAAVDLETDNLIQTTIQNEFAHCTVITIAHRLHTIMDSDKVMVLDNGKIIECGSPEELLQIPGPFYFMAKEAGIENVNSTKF

| Concentration in human blood samples [1, 7] | Concentration in human blood samples [1, 8] | Concentration in human blood samples [1, 9] | Concentration in human blood samples [1, 10] | Concentration in human blood samples [1, 11] | Concentration in human blood samples [1, 12] | Decrease of metabolite concentration in the VOR group [1, 13] [%] | Decrease of metabolite concentration in the VOR group [1, 14] [%] | Decrease of metabolite concentration in the VOR group [1, 15] [%] | Decrease of metabolite concentration in the VOR group [1, 16] [%] | Concentration in human blood samples [1, 17] | Concentration in human blood samples [1, 18] | Concentration in human blood samples [1, 19] | Concentration in human blood samples [1, 20] | Stability, %RE [2, 21] [%] | Stability, measured concentration (mean ± SD) [2, 21] [ng/mL] | Stability, %RE ([2]; 24 h at 25℃, nominal 5 ng/mL) [%] | Stability, measured concentration (mean ± SD) ([2]; 24 h at 25℃, nominal 5 ng/mL) [ng/mL] | Stability, %RE ([2]; 24 h at 25℃, nominal 80 ng/mL) [%] | Stability, measured concentration (mean ± SD) ([2]; 24 h at 25℃, nominal 80 ng/mL) [ng/mL] | SMILES | further results |
| --- | --- | --- | --- | --- | --- | --- | --- | --- | --- | --- | --- | --- | --- | --- | --- | --- | --- | --- | --- | --- | --- |
| 3.401 ± 1.028 | 21.602 ± 1.929 | 15.196 ± 1.779 | 10.106 ± 2.969 | 3.950 ± 1.867 | 4.239 + 2.160 | 74.34 | 44.30 | 33.53 | 55.72 | 5.543 + 2.235 | 10.100 + 1.896 | 4.475 + 2.687 | 2.200 + 1.184 | -0.35 | 0.047 ± 0.005 | -8.25 | 4.538 ± 0.424 | -6.25 | 76.114 ± 5.314 | CC(C)c1c(C(=O)Nc2ccccc2O)c(-c2ccccc2)c(-c2ccc(F)cc2)n1CCC(O)CC(O)CC(=O)O (centres unmarked) [2-Hydroxy-ATO, 2-hydroxy-ATO] | Stability, %RE [2, 22]: -8.35%; Stability, measured concentration (mean ± SD) [2, 22]: 0.044 ± 0.004 ng/mL; Stability, %RE [2, 23]: -1.35%; Stability, measured concentration (mean ± SD) [2, 23]: 4.554 ± 0.568 ng/mL; Stability, %RE [2, 24]: -10.28%; Stability, measured concentration (mean ± SD) [2, 24]: 72.580 ± 4.221 ng/mL |
| – | – | – | – | – | – | – | – | – | – | – | – | – | – | – | – | – | – | – | – | CN(C)C(=O)CCSC(SCCC(=O)O)c1cccc(/C=C/c2ccc3ccc(Cl)cc3n2)c1 (centres unmarked) [MK571] | Effect on the activity (efflux) of ABCC2 (ABCC2): reversed the efflux |
| 4.073 ± 2.168 | 15.510 ± 1.283 | 14.783 ± 3.501 | 6.863 ± 1.586 | 6.103 ± 2.640 | 5.047 + 0.882 | 47.45 | 41.62 | 55.78 | 45.85 | 8.150 + 1.219 | 6.537 + 0.304 | 3.717 + 0.807 | 3.563 + 1.830 | -7.78 | 0.045 ± 0.007 | -2.31 | 4.625 ± 0.337 | -9.07 | 73.581 ± 6.587 | CC(C)c1c(C(=O)Nc2ccc(O)cc2)c(-c2ccccc2)c(-c2ccc(F)cc2)n1CC[C@@H](O)C[C@@H](O)CC(=O)O [4-Hydroxy-ATO, 4-hydroxy-ATO] | Stability, %RE [2, 22]: -9.87%; Stability, measured concentration (mean ± SD) [2, 22]: 0.044 ± 0.005 ng/mL; Stability, %RE [2, 23]: -1.25%; Stability, measured concentration (mean ± SD) [2, 23]: 4.501 ± 0.411 ng/mL; Stability, %RE [2, 24]: -9.69%; Stability, measured concentration (mean ± SD) [2, 24]: 72.334 ± 7.338 ng/mL |

| SMILES | Concentration in human blood samples [1, 7] | Concentration in human blood samples [1, 8] | Concentration in human blood samples [1, 9] | Concentration in human blood samples [1, 10] | Concentration in human blood samples [1, 11] | Concentration in human blood samples [1, 12] | Decrease of metabolite concentration in the VOR group [1, 13] [%] | Decrease of metabolite concentration in the VOR group [1, 14] [%] | Decrease of metabolite concentration in the VOR group [1, 15] [%] | Decrease of metabolite concentration in the VOR group [1, 16] [%] | Concentration in human blood samples [1, 17] | Concentration in human blood samples [1, 18] | Concentration in human blood samples [1, 19] | Concentration in human blood samples [1, 20] | Stability, %RE [2, 21] [%] | Stability, measured concentration (mean ± SD) [2, 21] [ng/mL] | Stability, %RE ([2]; 24 h at 25℃, nominal 5 ng/mL) [%] | Stability, measured concentration (mean ± SD) ([2]; 24 h at 25℃, nominal 5 ng/mL) [ng/mL] | Stability, %RE ([2]; 24 h at 25℃, nominal 80 ng/mL) [%] | Stability, measured concentration (mean ± SD) ([2]; 24 h at 25℃, nominal 80 ng/mL) [ng/mL] | further results |
| --- | --- | --- | --- | --- | --- | --- | --- | --- | --- | --- | --- | --- | --- | --- | --- | --- | --- | --- | --- | --- | --- |
| C[C@@H](c1ncncc1F)[C@](O)(Cn1cncn1)c1ccc(F)cc1F [VOR, Voriconazole] | 0.007 + 0.012 | 0.000 + 0.000 | 0.007 + 0.012 | 0.000 + 0.000 | 0.007 + 0.012 | 2.870 + 0.325 | – | – | – | – | 2.673 + 0.465 | 2.563 + 0.122 | 2.780 + 0.317 | 2.820 + 0.540 | – | – | – | – | – | – | AUC(0-inf) [3, 25]: 3280 ± 835 ng·h/mL; Cmax [3, 25]: 826 ± 166 ng/mL; Tmax [3, 25]: 0.917 ± 0.204 h; half-life [3, 25]: 156 ± 25.1 min; AUC(0-t) [3, 25]: 3250 ± 862 ng·h/mL; AUC(0-inf) ([3]; NS + VOR 20 mg/kg oral): 3640 ± 798 ng·h/mL; Cmax ([3]; NS + VOR 20 mg/kg oral): 829 ± 246 ng/mL; Tmax ([3]; NS + VOR 20 mg/kg oral): 1.25 ± 0.612 h; half-life ([3]; NS + VOR 20 mg/kg oral): 155 ± 19 min; AUC(0-t) ([3]; NS + VOR 20 mg/kg oral): 3630 ± 802 ng·h/mL; MRT inf ([3]; NS + VOR 20 mg/kg oral, read-out: MRT0-∞): 3.53 ± 0.66 h; IC50 (CYP3A [4]): 49.8 µM; Effect on the activity (efflux) of ABCC2 (ABCC2): no effect; Stability, measured concentration (mean ± SD) ([5]; 0.05 ng/mL): 0.045 ± 0.004 ng/mL; Stability, measured concentration (mean ± SD) ([5]; 5 ng/mL): 4.558 ± 0.318 ng/mL; Stability, measured concentration (mean ± SD) ([5]; 80 ng/mL): 75.238 ± 5.338 ng/mL; Stability, measured concentration (mean ± SD) ([5]; 24 h, 0.05 ng/mL): 0.048 ± 0.004 ng/mL; Stability, measured concentration (mean ± SD) ([5]; 24 h, 5 ng/mL): 4.962 ± 0.301 ng/mL; Stability, measured concentration (mean ± SD) ([5]; 24 h, 80 ng/mL): 79.264 ± 5.131 ng/mL; IC50 at 20 min (CYP3A [6]): 45.9 µM |
